Reference: publication PMC7473865, “Repertoire-scale determination of class II MHC peptide binding via yeast display improves antigen prediction” (Nature Communications, 2020)
Where two headings read alike, the source gives them in different places. Ends that are not written are not given here. Peptide text beside a SMILES is read from it.

Target: T1, recombinant HLA-DR401 (HLA-DRA1*01:01, HLA-DRB1*04:01) (Homo sapiens, UniProt P01903+P01911, A100K/A169T/F76Y/I96L/K127E/L162R/M171V/N62H/P40V/Q125Y/R42H/S133A/S149N/S66Y/V115G/V209L/W38E)
T1 construct: poly-histidine (C); made in house; host or cells: High Five (Hi5) insect cells, baculovirus (pAcGP67a)
Test: biochemical
Assay type: binding

[1] = fluorescence polarization peptide competition, HLA-DR401, sheet Fig7, read-out: Measured IC50
[2] = HLA-DR401, fluorescence polarization competition, Fig3B, read-out: Measured IC50
[3] = estimated from two-point fluorescence polarization competition assay binding plots, HLA-DR401, N = 3 technical replicates per condition, read-out: IC50 (estimated)
[4] = SuppFig6C, fluorescence polarization competition, HLA-DR401, read-out: Measured IC50

Compound: CC[C@H](C)[C@H](NC(=O)[C@H](C)NC(=O)[C@H](CC(=O)O)NC(=O)[C@H](Cc1ccc(O)cc1)NC(=O)[C@H](CC(C)C)NC(=O)[C@@H]1CCCN1C(=O)[C@@H](NC(=O)CNC(=O)[C@@H](N)CCC(=O)O)[C@@H](C)CC)C(=O)N[C@@H](CCCCN)C(=O)N[C@@H](CS)C(=O)N[C@@H](CCSC)C(=O)N[C@@H](CCCNC(=N)N)C(=O)N[C@H](C(=O)N[C@@H](Cc1ccccc1)C(=O)N[C@@H](Cc1ccccc1)C(=O)NCC(=O)N[C@@H](Cc1c[nH]c2ccccc12)C(=O)N[C@@H](CCCCN)C(=O)N[C@@H](CCC(=O)O)C(=O)O)[C@@H](C)O
- IC50 [1]: 61.4 nM

Compound: CSCC[C@H](NC(=O)[C@H](Cc1ccc(O)cc1)NC(=O)CNC(=O)[C@@H](N)CCCCN)C(=O)N[C@@H](Cc1ccccc1)C(=O)N[C@@H](CCC(=O)O)C(=O)N[C@@H](CO)C(=O)N[C@@H](CCCCN)C(=O)N[C@@H](CO)C(=O)N[C@@H](CCSC)C(=O)N[C@@H](CCCCN)C(=O)N[C@@H](CC(C)C)C(=O)N[C@@H](CCCNC(=N)N)C(=O)N[C@H](C(=O)N[C@@H](CCC(N)=O)C(=O)O)[C@@H](C)O
- IC50 (read-out: Measured IC50): 38700 nM

Compound: CC(C)C[C@H](N)C(=O)N[C@@H](Cc1ccccc1)C(=O)N[C@@H](CCC(=O)O)C(=O)N[C@@H](CCCCN)C(=O)N[C@@H](Cc1ccccc1)C(=O)N[C@@H](Cc1ccccc1)C(=O)N1CCC[C@H]1C(=O)N[C@@H](CO)C(=O)N[C@@H](CO)C(=O)N[C@@H](CO)C(=O)N[C@@H](Cc1ccc(O)cc1)C(=O)N[C@@H](CCCNC(=N)N)C(=O)N[C@@H](CCCNC(=N)N)C(=O)N1CCC[C@H]1C(=O)N[C@H](C(=O)O)C(C)C
- IC50 [2]: > 50000 nM
- IC50 (read-out: Measured IC50): > 50000 nM

Compound: CC[C@H](C)[C@H](NC(=O)CNC(=O)[C@@H](NC(=O)[C@H](CCSC)NC(=O)CNC(=O)[C@H](CCSC)NC(=O)[C@@H](NC(=O)[C@H](CC(N)=O)NC(=O)[C@H](CC(=O)O)NC(=O)[C@@H](NC(=O)[C@@H]1CCCN1C(=O)[C@H](CCC(=O)O)NC(=O)[C@@H](NC(=O)CNC(=O)[C@H](Cc1c[nH]c2ccccc12)NC(=O)[C@H](CC(N)=O)NC(=O)[C@H](CCC(N)=O)NC(=O)[C@H](Cc1ccccc1)NC(=O)[C@@H](N)CC(C)C)C(C)C)[C@@H](C)CC)C(C)C)[C@@H](C)CC)C(=O)N[C@@H](CC(C)C)C(=O)O
- IC50 [1]: 2520 nM

Compound: CC[C@H](C)[C@H](NC(=O)[C@H](CCCCN)NC(=O)[C@H](CO)NC(=O)[C@@H](NC(=O)CNC(=O)[C@H](CC(N)=O)NC(=O)[C@@H](NC(=O)[C@H](CCCNC(=N)N)NC(=O)[C@@H](NC(=O)[C@H](Cc1ccc(O)cc1)NC(=O)[C@H](CC(C)C)NC(=O)[C@H](Cc1ccccc1)NC(=O)[C@@H](N)CCSC)C(C)C)[C@@H](C)O)[C@@H](C)O)C(=O)N[C@@H](CCCCN)C(=O)N[C@@H](CCSC)C(=O)N[C@@H](CCCCN)C(=O)N[C@@H](Cc1c[nH]c2ccccc12)C(=O)NCC(=O)N[C@@H](CCSC)C(=O)N[C@@H](CCC(=O)O)C(=O)O
- IC50 [1]: 6100 nM

Compound: CSCC[C@H](NC(=O)[C@H](CO)NC(=O)[C@H](Cc1ccccc1)NC(=O)[C@H](CC(N)=O)NC(=O)[C@H](C)NC(=O)[C@@H](NC(=O)[C@H](Cc1ccccc1)NC(=O)CNC(=O)[C@H](Cc1ccc(O)cc1)NC(=O)[C@H](CCCNC(=N)N)NC(=O)[C@H](Cc1ccc(O)cc1)NC(=O)[C@H](Cc1ccccc1)NC(=O)[C@H](Cc1ccccc1)NC(=O)[C@@H](N)CO)C(C)C)C(=O)N[C@@H](CCC(=O)O)C(=O)O
- IC50 [2]: > 50000 nM
- IC50 (read-out: Measured IC50): > 50000 nM

Compound: CSCC[C@H](NC(=O)[C@H](CCCNC(=N)N)NC(=O)[C@@H](N)CO)C(=O)N[C@@H](CCC(N)=O)C(=O)N[C@@H](Cc1ccccc1)C(=O)N[C@@H](CO)C(=O)N[C@@H](CO)C(=O)N[C@@H](Cc1ccccc1)C(=O)N[C@H](C(=O)N[C@H](C(=O)N[C@@H](CC(N)=O)C(=O)N[C@H](C(=O)N[C@@H](CCCNC(=N)N)C(=O)NCC(=O)N[C@@H](CO)C(=O)O)C(C)C)C(C)C)[C@@H](C)O
- IC50 (read-out: Measured IC50): 3380 nM

Compound: CSCC[C@H](NC(=O)[C@H](CO)NC(=O)[C@@H](NC(=O)[C@H](Cc1ccccc1)NC(=O)[C@H](CC(N)=O)NC(=O)[C@@H](NC(=O)[C@@H](N)C(C)C)C(C)C)C(C)C)C(=O)N[C@@H](CCC(=O)O)C(=O)N[C@@H](Cc1ccccc1)C(=O)N[C@@H](CO)C(=O)N[C@@H](CC(C)C)C(=O)N[C@H](C(=O)N[C@@H](CC(=O)O)C(=O)N1CCC[C@H]1C(=O)N[C@@H](CCCNC(=N)N)C(=O)O)[C@@H](C)O
- IC50 (read-out: Measured IC50): 7970 nM

Compound: CC(C)C[C@H](NC(=O)[C@H](C)NC(=O)[C@H](C)N)C(=O)N[C@@H](CC(N)=O)C(=O)N[C@H](C(=O)N[C@@H](CCC(=O)O)C(=O)N[C@@H](CCCNC(=N)N)C(=O)N[C@H](C(=O)N[C@@H](CS)C(=O)N[C@@H](Cc1c[nH]cn1)C(=O)N[C@@H](CS)C(=O)N[C@@H](Cc1c[nH]c2ccccc12)C(=O)N[C@@H](CCC(=O)O)C(=O)N[C@@H](CCC(=O)O)C(=O)NCC(=O)O)[C@@H](C)O)C(C)C (H-AALNVERTCHCWEEG-OH)
- IC50: 33.4 nM

Compound: CC(C)C[C@H](NC(=O)[C@H](C)NC(=O)[C@H](C)N)C(=O)N[C@@H](CCCNC(=N)N)C(=O)N[C@@H](CCC(=O)O)C(=O)N[C@@H](CCC(=O)O)C(=O)N[C@@H](Cc1c[nH]cn1)C(=O)N[C@H](C(=O)N[C@@H](CS)C(=O)N[C@@H](CCCCN)C(=O)N[C@@H](CS)C(=O)N[C@@H](Cc1c[nH]c2ccccc12)C(=O)N[C@@H](CCC(=O)O)C(=O)N[C@@H](CCC(=O)O)C(=O)NCC(=O)O)[C@@H](C)O (H-AALREEHTCKCWEEG-OH)
- IC50: 36.9 nM

Compound: CC(C)C[C@H](NC(=O)[C@H](C)NC(=O)[C@H](C)N)C(=O)N[C@@H](CO)C(=O)N[C@@H](CC(C)C)C(=O)N[C@@H](CCC(=O)O)C(=O)N[C@@H](CCCNC(=N)N)C(=O)N[C@@H](CO)C(=O)N[C@@H](CS)C(=O)N[C@@H](CCCCN)C(=O)N[C@@H](CS)C(=O)N[C@@H](Cc1c[nH]c2ccccc12)C(=O)N[C@@H](CCC(=O)O)C(=O)N[C@@H](CCC(=O)O)C(=O)NCC(=O)O (H-AALSLERSCKCWEEG-OH)
- IC50: 24.9 nM

Compound: CC(C)C[C@H](NC(=O)[C@H](C)NC(=O)[C@H](C)N)C(=O)N[C@H](C(=O)N[C@@H](CC(=O)O)C(=O)N[C@@H](CC(=O)O)C(=O)N1CCC[C@H]1C(=O)N[C@H](C(=O)N[C@@H](CS)C(=O)N[C@@H](CCCNC(=N)N)C(=O)N[C@@H](CS)C(=O)N[C@@H](Cc1c[nH]c2ccccc12)C(=O)N[C@@H](CCC(=O)O)C(=O)N[C@@H](CCC(=O)O)C(=O)NCC(=O)O)[C@@H](C)O)C(C)C (H-AALVDDPTCRCWEEG-OH)
- IC50: 29.3 nM

Compound: CC(C)C[C@H](NC(=O)CNC(=O)[C@H](CCCNC(=N)N)NC(=O)[C@H](CCC(=O)O)NC(=O)[C@H](CC(C)C)NC(=O)[C@@H](NC(=O)[C@H](Cc1c[nH]c2ccccc12)NC(=O)[C@H](C)NC(=O)[C@H](C)N)C(C)C)C(=O)N[C@@H](CS)C(=O)N[C@@H](CS)C(=O)N[C@@H](Cc1c[nH]c2ccccc12)C(=O)N[C@@H](CCC(=O)O)C(=O)N[C@@H](CCC(=O)O)C(=O)NCC(=O)O (H-AAWVLERGLCCWEEG-OH)
- IC50 [3]: 34 nM

Compound: CC(C)C[C@H](NC(=O)[C@H](CCC(=O)O)NC(=O)[C@H](CC(N)=O)NC(=O)[C@H](CC(C)C)NC(=O)[C@H](CCC(N)=O)NC(=O)[C@@H](NC(=O)[C@H](CO)NC(=O)[C@H](CO)NC(=O)[C@H](CS)NC(=O)[C@H](CO)NC(=O)[C@H](CC(C)C)NC(=O)[C@H](CCCNC(=N)N)NC(=O)[C@H](Cc1ccccc1)NC(=O)[C@H](CC(C)C)NC(=O)[C@H](CCC(N)=O)NC(=O)[C@@H]1CCCN1C(=O)[C@H](CC(C)C)NC(=O)[C@H](CC(=O)O)NC(=O)[C@H](CS)NC(=O)[C@@H](N)Cc1ccc(O)cc1)[C@@H](C)O)C(=O)O (H-YCDLPQLFRLSCSSTQLNEL-OH)
- IC50 [1]: 39.3 nM

Compound: AAANMDTSLPAWEEG
- IC50: 180 nM

Compound: AAEFRNEDGPLGEPG
- IC50 [4]: 79.9 nM

Compound: AAERKMSVLSAWEEG
- IC50: 817 nM

Compound: AAFFGWEWGPDGEPG
- IC50 (read-out: Measured IC50): 5670 nM

Compound: AAFLGEWSLLSWEEG
- IC50 [3]: < 10 nM

Compound: AAGFKGEQGPKGEPG
- IC50 (read-out: Measured IC50): 2910 nM

Compound: AAGFKGEQGPKGGPG
- IC50 (read-out: Measured IC50): 12100 nM

Compound: AAGFKGEQGPKGYPG
- IC50 [4]: 115 nM

Compound: AAGFPGEQGPKGEPG
- IC50 [1]: > 50000 nM
- IC50 (read-out: Measured IC50): > 50000 nM

Compound: AAGVIDPTMLGWEEG
- IC50: 29.3 nM

Compound: AALGLDLRAYVWEEG
- IC50 [3]: 7000 nM

Compound: AARYATSKSKGWEEG
- IC50 [3]: 9520 nM

Compound: AASFLSDSVMGWEEG
- IC50 [3]: < 10 nM

Compound: AAVADDFSCRGWEEG
- IC50: 47 nM

Compound: AAVNDQLTVNSWEEG
- IC50 [3]: 4500 nM

Compound: AAWDPDKTVYGWEEG
- IC50: 43.9 nM

Compound: AAWDPERTCRAWEEG
- IC50: 31.8 nM

Compound: AAWERENDMLGWEEG
- IC50: 15.2 nM

Compound: AAWESSTDLVGWEEG
- IC50: 11.9 nM

Compound: AAWHGEGSQIGWEEG
- IC50: 17.5 nM

Compound: AAWHNDPACKGWEEG
- IC50: 40.7 nM

Compound: AAWVPCGDMVSWEEG
- IC50: 26.5 nM

Compound: AAWVRVVPMRAWEEG
- IC50 [3]: < 10 nM

Compound: AAWVVEHSEVGWEEG
- IC50: 19.4 nM

Compound: AAYSVEPCYRMWEEG
- IC50 [3]: 37 nM

Compound: AGEYRNDPNNLAYNG
- IC50: 26.5 nM

Compound: AGGFKGEQGPKGYNG
- IC50 [4]: 134 nM

Compound: AIGFKGEQGPKGGVG
- IC50 (read-out: Measured IC50): 23300 nM

Compound: ASDSSYRNECPMAEKEDTQM
- IC50 [1]: 47.4 nM

Compound: ESSISDKNYWKTVSNAFSVI
- IC50 [1]: 24.7 nM

Compound: EVKYCTFSKDRSKPIPGMTL
- IC50 [1]: > 50000 nM
- IC50 (read-out: Measured IC50): > 50000 nM

Compound: FVGNIAEDLCLDITKLSARG
- IC50 [1]: 86 nM

Compound: LLPVKQSVVPLAKGTLITHC
- IC50 [1]: 307 nM

Compound: MKRRPVWTDINPKAVTNDEL
- IC50 [1]: 21 nM
